Assay results as given in patent EP1067939B1, “USE OF STEROIDAL ALKALOID DERIVATIVES AS INHIBITORS OF HEDGEHOG PROTEIN SIGNALING PATHWAYS” (The Johns Hopkins University, priority 1998, dated 1999).
“And” between values parts separate entries of the source, which are not always exact repeats. Equal values may be shown once. Read-outs that look alike come from different tables or passages of the source.

Columns and labels:
[1] = tested on: primary human lymphoblasts; experiment: Cholesterol Biosynthesis Assay (sterol profiles of cultured cells); assay type: cell-based; details: for Percent Sterols: 2. C28 Sterols / Percent Sterols: 3. C29 Sterols / Percent Sterols: Cholesterol / Percent Sterols: d. Zymosterol / Percent Sterols: e. Cholesta-8(14)-en-3ß-ol / Percent Sterols: f. 7 Dehydrocholesterol / Total Sterols (µg/mg protein) / Percent Sterols: c. Cholesta-7,24-dien-3ß-ol: five days
rat hepatoma cells = experiment: Cholesterol Esterification Assay (esterification of plasma membrane cholesterol); assay type: cell-based
From the text: Table 1. […] Table 1. Effects of synthetic and plant-derived compounds on cholesterol homeostasis. […]

chick embryos = tested on: chick embryos
From the text: • 1. M. Hammerschmidt, A. Brook, A. P. McMahon, Trends Genet, 13, 14-21 (1997). • 2. C. Chiang, et al., Nature, 383,407-413 (1996). • 3. Y. Tanabe, T. M. Jessell, Science 274, 1115-1123 (1996). • 4. T. P. Yamaguchi, Curr. Opin. Genet. Dev. 7, 513-518 (1997). • 5. N. Shubin, C. Tabin, S. Carroll, Nature 388, 639-648 (1997). • 6. A. E. Oro, et al., Science 276, 817-821 (1997). • 7. M. M. Cohen, K. K. Sulik, J. Craniofac. Genet. Deve. Biol. 12, 196-244 (1992). • 8. E. Belloni, et al., Nature Genet. 14, 353-356 (1996). • 9. E. Roessler, et al., Nature Genet. 14, 357-360 (1996). • 10. J. A. Porter, et al., Nature 374, 363-366 (1995). • 11. J. A. Porter, K. E. Young, P. A. Beacy, Science 274, 255-259 (1996b). • 12. J. J. Lee, et al., Science 266, 1528-1537 (1994). • 13. J. A. Porter, et al., Cell 86, 21-34 (1996a). • 14. C. Roux, Arch. Franc. Pediatr. 21, 451-464 (1964). • 15. C. Roux, C. R. Soc. Biol. 160, 1353-1357 (1966). • 16. D. B. Dehart, L. Lanoue, G. S. Tinit, K. K. Sulik, Am J. Med. Genet. 68, 328-337 (1997). • 17. M. Kraml, J. F. Bagli, D. Dvornik, Biochem. and Biophysical Res. Com. 15, 455-457 (1964). • 18. J. Avigan, D. Steinberg, H. E. Vroman, M. J. Thompson, E. Mosettig, J. Biol. Chem 235, 3123-3126 (1960). • 19. R. B. Clayton, A. N. Nelson, I. D. Frantz Jr., J. Lipid Res. 4, 166-178 (1963). • 20. J. Aufenanger, J. Pill, K. Stegmeier, F. H. Schmidt, Horm. Metabol. Res. 17, 612-613 (1986). • 21. […] G. Popjak, A. Meenean, E. J. Parish, W. D. Nes, J. Biol. Chem 264,6230-6238 (1989). • 23. H. Yoshikawa, Brain Deve. 13, 115-120 (1991). • 24. R. I. Kelley, et al., Am. J. Of Med. Gen. 66, 478-484 (1996). • 25. G. S. Tint, et al., New England Journal of Medicine 330, 107-113 (1994). • 26. T.E. Willnow, et al., Proc. Natl. Acad. Sci USA 93, 8460-8464 (1996). • 27. S. Stefansson, D. A. Chappell, K. M. Argraves, D. K. Strickland, W. S. Argraves, J. Biol. Chem. 270, 19417-19421 (1995). • 28. W. Binns, L. F. James, J. L. Shupe, G. Everett, Am. J. Vet. Res. 24, 1164-1174 (1963). • 29. R. F. Keeler, W. Binns, Teratology 1, 5-10 (1968). • 30. P. A. Beachy, et al., CSH Symp. Quant. Biol. 62, in press (1997). • 31. […]

endogenous Shh signaling = experiment: Midline neural plate/notochord explant assay of endogenous Shh signaling; assay type: cell-based, chick
Shh = molecular target: T1, Shh (Mus musculus, UniProt Q62226); experiment: Shh autoprocessing in stably transfected HK293 cells (immunoblot); assay type: cell-based; details: added during the 24-hour induction period; doses up to 5-fold higher than those required to completely inhibit Shh signaling
T1 construct: expressed in transfected cells; host or cells: HK293 cells, Ecdysone-Inducible Mammalian Expression System (Invitrogen)
T1 sequence (Q62226 25-437): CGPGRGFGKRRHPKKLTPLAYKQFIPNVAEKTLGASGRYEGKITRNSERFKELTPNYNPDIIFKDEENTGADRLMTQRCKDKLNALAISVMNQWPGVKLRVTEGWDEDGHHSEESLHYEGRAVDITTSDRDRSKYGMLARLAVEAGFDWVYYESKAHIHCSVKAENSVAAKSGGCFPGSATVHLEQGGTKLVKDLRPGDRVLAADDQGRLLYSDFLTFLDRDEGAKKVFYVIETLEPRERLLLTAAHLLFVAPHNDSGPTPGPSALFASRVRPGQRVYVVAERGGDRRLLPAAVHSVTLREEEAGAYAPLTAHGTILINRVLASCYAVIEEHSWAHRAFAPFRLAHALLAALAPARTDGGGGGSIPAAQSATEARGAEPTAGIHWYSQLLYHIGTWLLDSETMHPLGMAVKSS
From the text: To examine potential effects of these compounds on Shh processing we utilized HK293 cells cultured in lipid-depleted serum and carrying a stable integrated construct for expression of Shh under ecdysone-inducible control (47). Shh protein expression in these cells can be induced by addition of muristerone A, an ecdysone analog.
• 1. M. Hammerschmidt, A. Brook, A. P. McMahon, Trends Genet, 13, 14-21 (1997). • 2. C. Chiang, et al., Nature, 383,407-413 (1996). • 3. Y. Tanabe, T. M. Jessell, Science 274, 1115-1123 (1996). • 4. T. P. Yamaguchi, Curr. Opin. Genet. Dev. 7, 513-518 (1997). • 5. N. Shubin, C. Tabin, S. Carroll, Nature 388, 639-648 (1997). • 6. A. E. Oro, et al., Science 276, 817-821 (1997). • 7. M. M. Cohen, K. K. Sulik, J. Craniofac. Genet. Deve. Biol. 12, 196-244 (1992). • 8. E. Belloni, et al., Nature Genet. 14, 353-356 (1996). • 9. E. Roessler, et al., Nature Genet. 14, 357-360 (1996). • 10. J. A. Porter, et al., Nature 374, 363-366 (1995). • 11. J. A. Porter, K. E. Young, P. A. Beacy, Science 274, 255-259 (1996b). • 12. J. J. Lee, et al., Science 266, 1528-1537 (1994). • 13. J. A. Porter, et al., Cell 86, 21-34 (1996a). • 14. C. Roux, Arch. Franc. Pediatr. 21, 451-464 (1964). • 15. C. Roux, C. R. Soc. Biol. 160, 1353-1357 (1966). • 16. D. B. Dehart, L. Lanoue, G. S. Tinit, K. K. Sulik, Am J. Med. Genet. 68, 328-337 (1997). • 17. M. Kraml, J. F. Bagli, D. Dvornik, Biochem. and Biophysical Res. Com. 15, 455-457 (1964). • 18. J. Avigan, D. Steinberg, H. E. Vroman, M. J. Thompson, E. Mosettig, J. Biol. Chem 235, 3123-3126 (1960). • 19. R. B. Clayton, A. N. Nelson, I. D. Frantz Jr., J. Lipid Res. 4, 166-178 (1963). • 20. J. Aufenanger, J. Pill, K. Stegmeier, F. H. Schmidt, Horm. Metabol. Res. 17, 612-613 (1986). • 21. […] G. Popjak, A. Meenean, E. J. Parish, W. D. Nes, J. Biol. Chem 264,6230-6238 (1989). • 23. H. Yoshikawa, Brain Deve. 13, 115-120 (1991). • 24. R. I. Kelley, et al., Am. J. Of Med. Gen. 66, 478-484 (1996). • 25. G. S. Tint, et al., New England Journal of Medicine 330, 107-113 (1994). • 26. T.E. Willnow, et al., Proc. Natl. Acad. Sci USA 93, 8460-8464 (1996). • 27. S. Stefansson, D. A. Chappell, K. M. Argraves, D. K. Strickland, W. S. Argraves, J. Biol. Chem. 270, 19417-19421 (1995). • 28. W. Binns, L. F. James, J. L. Shupe, G. Everett, Am. J. Vet. Res. 24, 1164-1174 (1963). • 29. R. F. Keeler, W. Binns, Teratology 1, 5-10 (1968). • 30. P. A. Beachy, et al., CSH Symp. Quant. Biol. 62, in press (1997). • 31. E. D. Carstea, et al., Science 277, 228-231 (1997). • 32. S. K. Loftus, et al., Science 277, 232-235 […]. • 33. L. V. Goodrich, L. Milenkovic, K. M. Higgins, M. P. Scott, Science 277, 1109-1113 (1997). • 34. H. Kumagai, K. T. Chun, R. D. Simoni, J. Biol. Chem. 270, 19107-19113 (1995). • 35. G. Gil, J. R. Faust, D. J. Chin, J. L. Goldstien, M. S. Brown, Cell 41, 249-258 (1985). • 36. X. Hua, A. Nohturfft, J. L. Goldstein, M. S. Brown, Cell 87, 415-426 (1996). • 37. M. S. Brown, J. L. Goldstein, Cell 89, 331-340 (1997). • 38. M. M. Bryden, C. Perry, R. F. Keeler, Teratology 8, 18-28 (1973). • 39. M. L. Omnell, F. R. P. Sim, R. F. Keeler, L. C. Harne, K. W. Brown, Teratology 42, 105-119 (1990). • 40. Fertile chick eggs (white leghorn) were placed in a humidified incubator at 37.5° C in a rotating tray for 14 hours. […] The window was taped and the eggs incubated for an additional 4 days. The embryos were dissected in phosphate buffered saline (PBS, pH 7.2).

His6Hh-C = molecular target: T2, His6Hh-C (Drosophila melanogaster, UniProt Q02936); experiment: In vitro Hh autoprocessing reaction with purified components; assay type: biochemical
T2 construct: made in house
T2 sequence (Q02936 252-471): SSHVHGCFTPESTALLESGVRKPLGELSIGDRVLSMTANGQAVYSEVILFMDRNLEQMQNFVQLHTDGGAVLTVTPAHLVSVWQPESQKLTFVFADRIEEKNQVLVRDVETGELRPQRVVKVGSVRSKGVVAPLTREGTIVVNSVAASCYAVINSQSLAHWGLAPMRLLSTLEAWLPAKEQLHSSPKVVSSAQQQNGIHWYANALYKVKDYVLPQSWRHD

Shh-N = experiment: Intermediate neural plate explant response to exogenous Shh-N protein; assay type: cell-based, chick
BMP7 = experiment: Neural plate explant response to BMP7 (migratory HNK-1 positive cells); assay type: cell-based, chick; details: 10 µM, 100 ng/ml BMP7, ventral neural plate explants
Shh protein = Shh protein localization in floor plate cells of treated chick embryos; assay type: in vivo; details: embryos treated after floor plate induction
[2] = read-out: Percent Inhibition (incorporation of label into cholesteryl ester*) ^3H-Cholesterol
[3] = read-out: Percent Inhibition (incorporation of label into cholesteryl ester*) ^14C-Oleic Acid

CC1=C2C(=O)[C@H]3[C@@H](CC=C4C[C@@H](O)CC[C@@]43C)[C@@H]2CC[C@]12O[C@@H]1C[C@H](C)CN[C@H]1[C@H]2C [Jervine, jervine]
Percent Sterols: a. Desmosterol [1]: 2.7% and 2.5% and 2.4%
Percent Sterols: 2. C28 Sterols ([1]; 1.25 µM): 1.2%
Percent Sterols: 3. C29 Sterols ([1]; 1.25 µM): 0.8%
Percent Sterols: Cholesterol ([1]; 1.25 µM): 90%
Percent Sterols: d. Zymosterol ([1]; 1.25 µM): 1.7%
Percent Sterols: e. Cholesta-8(14)-en-3ß-ol ([1]; 1.25 µM): 1.0%
Percent Sterols: f. 7 Dehydrocholesterol ([1]; 1.25 µM): 1.5%
Total Sterols (µg/mg protein) ([1]; 1.25 µM): 8.8 µg/mg protein
Percent Sterols: 2. C28 Sterols ([1]; 2.5 µM): 0.7%
Percent Sterols: 3. C29 Sterols ([1]; 2.5 µM): 0.8%
Percent Sterols: Cholesterol ([1]; 2.5 µM): 90%
Percent Sterols: c. Cholesta-7,24-dien-3ß-ol ([1]; 2.5 µM): 0.5%
Percent Sterols: d. Zymosterol ([1]; 2.5 µM): 2.0%
Percent Sterols: e. Cholesta-8(14)-en-3ß-ol ([1]; 2.5 µM): 1.7%
Percent Sterols: f. 7 Dehydrocholesterol ([1]; 2.5 µM): 1.4%
Total Sterols (µg/mg protein) ([1]; 2.5 µM): 8.4 µg/mg protein
Percent Sterols: 2. C28 Sterols ([1]; 5.0 µM): 0.7%
Percent Sterols: 3. C29 Sterols ([1]; 5.0 µM): 1.6%
Percent Sterols: Cholesterol ([1]; 5.0 µM): 88%
Percent Sterols: c. Cholesta-7,24-dien-3ß-ol ([1]; 5.0 µM): 0.5%
Percent Sterols: d. Zymosterol ([1]; 5.0 µM): 2.3%
Percent Sterols: e. Cholesta-8(14)-en-3ß-ol ([1]; 5.0 µM): 2.3%
Percent Sterols: f. 7 Dehydrocholesterol ([1]; 5.0 µM): 1.3%
Total Sterols (µg/mg protein) ([1]; 5.0 µM): 10 µg/mg protein
inhibition at 2.5 µM (rat hepatoma cells; [2]): 24%
inhibition at 2.5 µM (rat hepatoma cells; [3]): 28%
inhibition at 5 µM (rat hepatoma cells; [2]): 44%
inhibition at 5 µM (rat hepatoma cells; [3]): 36%
inhibition at 10 µM (rat hepatoma cells; [2]): 50%
inhibition at 10 µM (rat hepatoma cells; [3]): 49%
Holoprosencephaly induced in chick embryos (chick embryos; in ovo exposure at the intermediate to definitive streak stage, Fig. 2: 10 µM jervine): induced external malformations characteristic of HPE
embryos displayed normal morphology (chick embryos; in ovo, highest concentrations tested, 50µM): 5/10
Higher doses that fully inhibit HNF3β and Isl-1 induction (endogenous Shh signaling): 4.0 µM
Intermediate doses that block induction of HNF3β while permitting induction of Isl-1 (endogenous Shh signaling): 0.5 µM
Shh-Np production and accumulation of unprocessed precursor (Shh): did not diminish Shh-Np production nor induce accumulation of unprocessed precursor
His6Hh-C autocleavage reaction in the presence of compound without sterol (His6Hh-C): does not proceed
interference with cholesterol-stimulated autoprocessing (His6Hh-C): does not interfere with autoprocessing
concentration that inhibits the repression of Pax7 expression by 2 nM Shh-N (Shh-N): 0.125 µM
doses at which HNF3β and Isl-1 induction are completely blocked (Shh-N): 0.5 µM
intermediate levels at which induction of HNF3β is blocked while induction of Isl-1 is maintained or expanded (Shh-N): 0.25 µM
Induction of migratory HNK-1 positive cells by BMP7 (BMP7): not inhibited
localization of Shh protein within floor plate cells (Shh protein): normal apical localization of Shh protein
